The test addresses T1, human 11β-HSD1 (Homo sapiens, UniProt P28845).
T1 construct: expressed in transfected cells; host or cells: CHO cells (microsomes isolated from them)
The test is described as follows: Inhibition of microsomal preparation of 11β-HSD1 (SPA, [3H]cortisone to [3H]cortisol), Biological Test Example 1. It counts as biochemical. The note with it: microsomes from CHO cells overexpressing human 11β-HSD1; for Average % inhibition at 100 nM / inhibition at 0.1 µM: 100 nM compound; for Average % inhibition at 100 nM: 0.1 µM; for IC50: read-out: IC50 Range. The procedure:
The inhibition of microsomal preparation of 11β-HSD1 by compounds of the invention was measured essentially as previously described (K. Solly, S. S. Mundt, H. J. Zokian, G. J. Ding, A. Hermanowski-Vosatka, B. Strulovici, and W. Zheng, High-Throughput Screening of 11-Beta-Hydroxysteroid Dehydrogenase Type 1 in Scintillation Proximity Assay Format. Assay Drug Dev Technol 3 (2005) 377-384). All reactions were carried out at room temperature in 96 well clear flexible PET Microbeta plates (PerkinElmer). The assay begins by dispensing 49 p. 1 of substrate solution (50 mM HEPES, pH 7.4, 100 mM KCl, 5 mM NaCl, 2 mM MgCl2, 2 mM NADPH and 160 nM [^3H]cortisone (1 Ci/mmol)) and mixing in 1 μL of the test compounds in DMSO previously diluted in half-log increments (8 points) starting at 0.1 mM. After a 10 minute pre-incubation, 50 μL of enzyme solution containing microsomes isolated from CHO cells overexpressing human 11β-HSD1 (10-20 μg/ml of total protein) was added, and the plates were incubated for 90 minutes at room temperature. The reaction was stopped by adding 50 μl of the SPA beads suspension containing 10 μM 18β-glycyrrhetinic acid, 5 mg/ml protein A coated YSi SPA beads (GE Healthcare) and 3.3 μg/ml of anti-cortisol antibody (East Coast Biologics) in Superblock buffer (Bio-Rad). The plates were shaken for 120 minutes at room temperature, and the SPA signal corresponding to [^3H]cortisol was measured on a Microbeta plate reader.

Data on nine molecules can be found in patent US20110105504A1, “Inhibitors Of 11beta-Hydroxysteroid Dehydrogenase Type 1” (Vitae Pharmaceuticals ,Inc., priority 2008, published 2011).

In general, IC50 refers to the concentration at which inhibition is half-maximal. Broadly, the inhibition is the change of the read-out against control, counted positive when it falls. High values mean a response far below the control, low ones a response near the control.

Molecules are shown by their SMILES. A value given as a limit tells only on which side of the number the result lay.

T1 sequence (P28845 whole entry): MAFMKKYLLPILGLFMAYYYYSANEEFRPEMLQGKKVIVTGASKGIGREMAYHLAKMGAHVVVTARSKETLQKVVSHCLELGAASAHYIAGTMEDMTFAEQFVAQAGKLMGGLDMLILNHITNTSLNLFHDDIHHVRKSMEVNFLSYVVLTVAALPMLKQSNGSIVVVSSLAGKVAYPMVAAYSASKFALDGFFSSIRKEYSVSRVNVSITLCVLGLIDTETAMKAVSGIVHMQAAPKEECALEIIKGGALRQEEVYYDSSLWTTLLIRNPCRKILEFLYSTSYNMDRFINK

Regarding `C[C@@H](c1ccc(-c2ccc(F)cc2)cc1)N1CC(CCCO)(c2ccc(F)cc2)OC1=O` (single isomer, unassigned) [Example 3 Isomer 2], the “Average % inhibition at 100 nM” value stood at 19.1% and the half-maximal inhibitory concentration (IC50) is more than 100 nM.
Regarding `C[C@@H](c1ccc(-c2ccn(C)c(=O)c2)cc1)N1C[C@](CCC(C)(C)O)(c2ccccc2)OC1=O` (single isomer, unassigned) [Example 6 Isomer 1], at 0.1 µM the inhibition was 18.4% and the IC50 is more than 100 nM.
`C[C@@H](c1ccc(Br)cc1)N1CC(CCCO)(c2ccc(F)cc2)OC1=O` (single isomer, unassigned) [Example 2 Isomer 2]: the “Average % inhibition at 100 nM” value worked out at 16.9% and the half-maximal inhibitory concentration (IC50) was more than 100 nM.
The corresponding values for `C[C@@H](c1ccc(-c2ccn(C)c(=O)c2)cc1)N1C[C@](CCC(C)(C)O)(c2ccccc2)OC1=O` (single isomer, unassigned) [Example 6 Isomer 2] are 19.8% and more than 100 nM.
As to `C[C@@H](c1ccc(-c2ccn(C)c(=O)c2)cc1)N1C[C@@](CC(C)(C)O)(c2ccccc2)OC1=O` (single isomer, unassigned) [Example 5 Isomer 2], testing at 0.1 µM gave an inhibition of 3.4% and the concentration for half-maximal inhibition (IC50) is more than 100 nM.
Take `C[C@@H](c1ccc(-c2ccc(F)cc2)cc1)N1CC(CCCO)(c2ccc(F)cc2)OC1=O` (single isomer, unassigned) [Example 3 Isomer 1]: the “Average % inhibition at 100 nM” value was 91.4% and the IC50 was less than 100 nM.
On the same counts, the results for `C[C@@H](c1ccc(Br)cc1)N1CC(CCCO)(c2ccc(F)cc2)OC1=O` (single isomer, unassigned) [Example 2 Isomer 1] are 78.3% and less than 100 nM.
For `Cc1cccc(N2CC(C)(c3ccccc3)OC2=O)c1` (stereo not drawn) [Example 7, 5-Methyl-5-phenyl-3-m-tolyloxazolidin-2-one], testing at 0.1 µM gave an inhibition of 5.4% and the IC50 is more than 1000 nM.
Consider `C[C@@H](c1ccc(-c2ccn(C)c(=O)c2)cc1)N1C[C@](CC(C)(C)O)(c2ccccc2)OC1=O` (single isomer, unassigned) [Example 5 Isomer 1], for which testing at 0.1 µM gave an inhibition of 51.9% and the 50% inhibitory concentration (IC50) is less than 100 nM.
